Where “and” joins values, the source holds several entries; their conditions need not be identical. Equal entries are not always repeated.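 Compound exposure: 48 hours, 5 concentrations, 96-well plates. Here, GI50 denotes the concentration required for 50% inhibition of growth. TGI denotes the concentration required for complete inhibition of growth.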
Columns and labels:
Test in all cases: NCI-60 cell line screen, 48 h
[1] = test system: CAKI-1 renal
[2] = test system: IGROV1 ovarian
[3] = test system: NCI-H460 lung
[4] = test system: SF-268 CNS
[5] = test system: SR leukemia
[6] = test system: TK-10 renal
[7] = test system: DU-145 prostate
[8] = test system: MDA-MB-435
[9] = test system: RPMI-8226 leukemia
[10] = test system: T-47D breast

Compound | TGI [1] [µM] | TGI [2] [µM] | TGI [3] [µM] | TGI [4] [µM] | TGI [5] [µM] | TGI [6] [µM] | GI50 [1] | GI50 [7] [nM] | GI50 [8] [µM] | TGI [8] | GI50 [3] [µM] | GI50 [9] [µM] | TGI [9] [µM] | GI50 [4] [µM] | GI50 [6] [µM] | TGI [7] [µM] | GI50 [2] [µM] | GI50 [5] [µM] | GI50 [10] [µM] | TGI [10] [µM]
OCC(O)COc1c(Cl)ccc(Cl)c1Cl (centres undefined) | > 100 | > 100 | > 100 | > 100 | > 100 | > 100 | – | – | – | – | – | – | – | – | – | – | – | – | – | –
O=C(CCc1ccccc1)On1nnc2ccccc2c1=O | > 100 | > 100 | > 100 | > 100 | > 100 | 96.2 | – | – | – | – | – | – | – | – | – | – | – | – | – | –
COc1ccc2[nH]c(-c3cccc(N(C)C)c3)cc(=O)c2c1 | > 100 | > 100 | > 100 | 33.7 | 1.73 | > 100 | 0.418 µM | 589 | 0.0444 | 213 nM and 202 nM | 0.564 | 0.443 | 0.844 | 0.657 | 19.8 | – | – | – | – | –
CC(=O)OCC(OC(C)=O)C(OC(C)=O)C(OC(C)=O)C(=O)CNn1c(-c2ccccc2)nc2ccc(Br)cc2c1=O (centres undefined) | > 100 | – | > 100 | > 100 | > 100 | – | – | – | – | – | – | – | > 100 | – | – | – | – | – | – | –
COc1ccc(C2C(c3ccccc3)C(=O)N2c2cc(OC)c(OC)c(OC)c2)cc1I (centres undefined) | – | > 100 | > 100 | > 100 | > 100 | > 100 | – | 332 | 0.209 | 644 nM | 0.337 | 0.422 | > 100 | 0.712 | > 100 | 75.4 | 0.58 | 0.286 | > 100 | > 100
CC(C)CC(CNC(Cc1ccc(Cl)cc1)C(N)=O)NC(=O)C(Cc1cnc[nH]1)NC(=O)CNC(=O)C(NC(=O)C(C)NC(=O)C(Cc1c[nH]c2ccccc12)NC(=O)C(CCC(=O)O)NC(=O)C(N)Cc1ccccc1)C(C)C (centres undefined) | > 133 | > 133 | > 133 | – | > 133 | – | – | – | – | – | – | – | > 133 | – | – | – | – | – | – | –
Cc1[nH]c(=O)nc(CC(O)(c2ccccc2)c2ccccc2)c1-c1ccccc1 | > 100 | > 100 | > 100 | > 100 | – | > 100 | – | – | – | – | – | – | – | – | – | – | – | – | – | –
O=C(Nc1cccc(C(F)(F)F)c1)c1cccc(NC2=C(Cl)C(=O)N(Cc3ccccc3)C2=O)c1 | > 100 | 18.3 | > 100 | 40.9 | – | > 100 | 6.5 µM | 37200 | 8.69 | > 100000 nM | 8.76 | 1.89 | 6.51 | 5.96 | 19.5 | > 100 | 1.92 | – | 6.28 | 89.9
Fc1ccc(F)c(C2SCc3nc4ccccc4n32)c1 (centres undefined) | > 100 | > 100 | > 100 | > 100 | > 100 | > 100 | – | – | – | – | – | – | > 100 | – | – | – | – | – | – | –
COc1ccc(NC(=O)Nc2ccc(Nc3nc(C)cc(Nc4ccc(C)cc4)n3)cc2)cc1 | – | 3.28 | – | 5.07 | – | 3.06 | – | 1160 | – | – | – | 0.71 | 1.65 | 2.16 | 1.68 | 2.59 | 1.71 | – | 1.78 | 4.24
CCc1ccccc1-n1c2nc(=O)n(C)c(=O)c-2nc2ccccc21 | 49.3 | 35.4 | 20.8 | 24 | – | 35.4 | – | – | – | – | – | – | 58.7 | – | – | – | – | – | – | –
COc1ccc2c(c1OC)-c1c(c3ccc([N+](=O)[O-])cc3c(=O)n1CCCN=[N+]=[N-])C2=O | 9.73 | 23.9 | > 100 | > 100 | – | > 100 | 2.55 µM | 4880 | 72.4 | > 100000 nM | 9.97 | 5.18 | > 100 | 30.3 | > 100 | > 100 | 1.02 | – | 5.29 | > 100
COc1cc2nc(-c3ccc(-n4cncc4-c4ccc(N)cc4)cc3)sc2c(OC)c1OC | 5.85 | 20.2 | > 100 | 62.1 | – | > 100 | 1.41 µM | 7250 | – | – | 5.13 | – | – | 12.3 | 4.93 | > 100 | 2.63 | – | 1.59 | 6.71
COc1cc(/C=C2\CC3C4CC=C5C[C@@H](N6CCCC6)CC[C@]5(C)C4CC[C@]3(C)[C@H]2OC(C)=O)ccc1OCCN1CCCCC1 (some centres undefined) | 3.95 | 3.23 | > 100 | 5.6 | – | 1.49 | 1.95 µM | 1570 | 1.83 | 3440 nM | 3.18 | 0.0109 | 0.119 | 2.26 | 0.211 | 3.67 | 1.59 | – | 2.25 | 3.98
CCOC(=O)C1=C(NC(C)(C)C)OCC1=O | > 100 | > 100 | > 100 | > 100 | > 100 | > 100 | – | – | – | – | – | – | > 100 | – | – | – | – | – | – | –
Cc1cccc2c1Oc1cc(Cl)ccc1C2NC(=O)CN(C)C (centres undefined) | – | > 100 | > 100 | > 100 | > 100 | > 100 | – | – | – | – | – | – | > 100 | – | – | – | – | – | – | –
Cc1c(C2Cc3ccccc3N2C(=O)/C=C\C(=O)O)c2ccccc2n1C (centres undefined) | 78.7 | 70.7 | > 100 | 35.9 | 85.8 | 44.6 | – | – | – | – | – | – | – | – | – | – | – | – | – | –
CC[C@@H](C)[C@H]([C@H](CC(=O)N1CCC[C@@H]1[C@@H](OC)[C@H](C)C(=O)N[C@H](Cc1ccccc1)c1nccs1)OC)N(C)C(=O)[C@H](NC(=O)[C@@H](C(C)C)N(C)C)C(C)C | – | – | 0.00195 | – | – | 98.3 | 0.000245 µM and 0.000425 µM | 0.0148 | – | 0.00294 nM | – | 0.000425 | – | – | 0.31 | 0.000106 | 0.000425 | – | – | > 100
Cc1ccc(C2SCc3nc4ccc(C(=O)c5ccccc5)cc4n32)cc1 (centres undefined) | 4.26 | > 69 | > 75.6 | 77.7 | – | 35.1 | 0.457 µM | 27900 | 2.83 | 11400 nM | 10.7 | 10.3 | > 95 | 22.4 | 13.9 | 89.6 | 13.6 | – | 14 | > 63.5
COc1ccc(/C(Cl)=C(\C=O)c2ccc(OC)c(OC)c2)cc1OC | > 100 | > 100 | > 100 | > 39.8 | > 100 | > 100 | – | – | – | > 100000 nM | – | – | > 100 | – | – | > 100 | – | – | – | –
